Data taken from PMC8743659, “C1632 suppresses the migration and proliferation of non‐small‐cell lung cancer cells involving LIN28 and FGFR1 pathway” (Journal of Cellular and Molecular Medicine, 2021).
Where two headings read alike, the source gives them in different places.

Experiments:
CYP2B1 = molecular target: T1, CYP2B1 (Rattus norvegicus, UniProt P00176); assay: Microsomal incubation (cocktail) assay, rat liver microsomes; format: in vitro ADME; conditions: 100 μM C1632, probe 10 μM bupropion, 30 min, 37°C
T1 construct: 3.4 mg/ml pooled rat liver microsomes; from tissue; host or cells: pooled rat liver microsomes
T1 sequence (P00176 1-491): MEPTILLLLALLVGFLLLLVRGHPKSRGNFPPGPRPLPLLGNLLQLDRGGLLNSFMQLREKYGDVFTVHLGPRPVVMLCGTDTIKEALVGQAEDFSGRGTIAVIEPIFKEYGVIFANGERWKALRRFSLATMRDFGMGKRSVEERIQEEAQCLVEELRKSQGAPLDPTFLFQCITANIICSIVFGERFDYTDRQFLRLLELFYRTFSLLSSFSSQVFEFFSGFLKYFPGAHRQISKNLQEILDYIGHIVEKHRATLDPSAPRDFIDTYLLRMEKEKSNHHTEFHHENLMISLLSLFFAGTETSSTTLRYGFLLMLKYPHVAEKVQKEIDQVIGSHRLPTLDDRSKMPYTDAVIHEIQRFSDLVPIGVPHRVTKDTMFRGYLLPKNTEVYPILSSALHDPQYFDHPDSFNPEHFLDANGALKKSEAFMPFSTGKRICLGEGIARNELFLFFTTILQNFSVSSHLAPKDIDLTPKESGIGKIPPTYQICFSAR
Method: (§1) The microsomal incubation assay[41] was performed at 37°C in a 200 μl incubation system, which consisted of 3.4 mg/ml pooled rat liver microsomes, 100 μM C1632, and probe substrates (5 μM CYP3A2‐midazolam; 10 μM CYP2D1‐dextromethorphan; 250 μM CYP2C11‐tolbutamide; 10 μM CYP2B1‐bupropion; and 0.1 M Tris–HCl [pH 7.4]). After 5 min of incubation, 1 mM NADPH was added, and the assay was terminated after 30 min by cooling at −80°C. Next, 0.2 ml acetonitrile and 20 μl IS (100 ng/ml) were added to the reactant. Finally, the solution was thoroughly vortexed and centrifuged at 12,000 rpm for 10 min. The supernatant was analysed by UHPLC‐MS/MS.[42]

CYP2C11 = molecular target: T2, CYP2C11 (Rattus norvegicus, UniProt P08683); assay: as above; format: in vitro ADME; conditions: 100 μM C1632, probe 250 μM tolbutamide, 30 min, 37°C
T2 construct: 3.4 mg/ml pooled rat liver microsomes; from tissue; host or cells: pooled rat liver microsomes
T2 sequence (P08683 1-500): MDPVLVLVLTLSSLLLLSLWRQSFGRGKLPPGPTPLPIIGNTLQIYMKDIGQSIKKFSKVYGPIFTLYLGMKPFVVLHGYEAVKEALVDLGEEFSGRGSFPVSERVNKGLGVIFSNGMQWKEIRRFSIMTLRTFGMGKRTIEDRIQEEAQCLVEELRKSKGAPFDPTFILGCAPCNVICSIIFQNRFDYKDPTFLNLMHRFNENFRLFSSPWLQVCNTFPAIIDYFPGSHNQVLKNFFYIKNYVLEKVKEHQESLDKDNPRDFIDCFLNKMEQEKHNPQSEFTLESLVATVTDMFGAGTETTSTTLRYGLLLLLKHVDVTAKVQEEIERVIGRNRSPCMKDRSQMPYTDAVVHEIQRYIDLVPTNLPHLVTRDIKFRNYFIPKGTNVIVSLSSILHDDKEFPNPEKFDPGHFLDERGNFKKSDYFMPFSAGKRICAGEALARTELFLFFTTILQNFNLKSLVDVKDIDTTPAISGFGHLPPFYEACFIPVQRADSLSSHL
Method: as §1

A549R xenograft tumours = assay: NSCLC A549R xenograft model; format: in vivo, mice
Method: A total of 1.0 × 10^6 A549R cells were inoculated subcutaneously into the dorsal flank of the nude mice in 100 µl phosphate‐buffered saline (PBS). Mice were randomly divided into control and C1632 treatment groups (n = 4 per group). Mice were i.p. injected every other day for 18 days (A549R) at a dose of 30 mg/kg in 100 µl PBS per mouse. The tumours were resected, and their size was estimated from the measurements of weight or the longest diameter across the tumour and the corresponding perpendicular diameter.

[1] = Pharmacokinetic study, plasma by UHPLC-MS/MS; format: in vivo, Sprague-Dawley (SD) rats; conditions: for MRT last: read-out: MRT(0-t); for half-life: read-out: t1/2z (converted)
Method: Agilent 1290 UHPLC system and 6420 series Triple‐Quadrupole Tandem Mass Spectrometer (Agilent Corporation) maintained at 35°C with a ZORBAX Eclipse Plus C18 column (1.8 μm, 2.1 × 50 mm). The mobile phase was a gradient elution program consisting of solvent A with solvent B at a flow rate of 0.4 ml/min. Mobile phase A was 0.1% formic acid in water (v/v), and mobile phase B was acetonitrile. The optimal gradient elution program was as follows: 0–0.5 min, linear from 80% to 5% A; 0.5–1.5 min, 5% A; 1.5–1.6 min, linear from 5% to 80% A. The post‐time was 1.3 min for equilibration of the column and the total runtime was 1.8 min. The mass spectrometer was acquired in an ESI‐positive mode with multiple reaction monitoring (MRM). Instrument control and data acquisition were performed on the MassHunter Agilent Software (version B.07.00).
The desolation gas (nitrogen) flow was set to 10 L/h: the capillary voltage: 4000 V; nebulizing gas and drying gas (both nitrogen): 45 psi and 350°C, respectively. The MRM mode with m/z 282.2→76.9 for C1632 and m/z 282.1→194.0 for IS was used for quantitative analysis.
Male SD rats were starved for 12 h before the experiment. But, tap water was available ad libitum. C1632 was administered orally or intravenously at the dose of 20 mg/kg (p.o.), 4 mg/kg (i.v.), respectively (n = 6). Blood samples were collected into heparinized polythene tubes 0.083, 0.25, 0.5, 1, 2, 4, 6, 9, 12, 24 h after dosing. As followed, the samples were centrifuged at 14,954 g for 10 min. Add acetonitrile (400 µl) and IS (20 µl) into collected plasma samples (100 µl). Thereafter, the samples were vortexed for 2 min, followed by centrifugation at 14,954 g for 10 min. Remove the supernatants to 1.5 ml tube and the sample is ready for detection by established UHPLC‐MS/MS assay. The injection volume is 6 µl. The pharmacokinetic parameters were determined using DAS software (Version 3.0).

[2] = male, Sprague-Dawley, iv, rat plasma, i.v. 4 mg/kg
[3] = male, Sprague-Dawley, po, rat plasma, p.o. 20 mg/kg

effect on CYP2B1 activity (CYP2B1): significantly inhibit | effect on CYP2C11 activity (CYP2C11): significantly inhibit | AUC(0-t) [1, 2]: 4090 ± 1630 ng·h/mL | Cmax [1, 2]: 2070 ± 338 ng/mL | Tmax [1, 2]: 0.53 ± 0.74 h | MRT last [1, 2]: 1.57 ± 0.74 h | half-life [1, 2]: 1.14 ± 0.52 h | AUC(0-t) [1, 3]: 9100 ± 3830 ng·h/mL | Cmax [1, 3]: 4240 ± 2680 ng/mL | Tmax [1, 3]: 1.04 ± 0.78 h | CL/F ([1]; male, Sprague-Dawley, po, rat plasma, p.o. 20 mg/kg, read-out: CLz/F (converted)): 46.2 mL/min/kg | MRT last [1, 3]: 1.88 ± 0.42 h | Vd/F ([1]; male, Sprague-Dawley, po, rat plasma, p.o. 20 mg/kg, read-out: Vz/F): 4.54 ± 4.68 L/kg | half-life [1, 3]: 1.05 ± 0.6 h | bioavailability ([1]; male, Sprague-Dawley, rat, plasma, oral, 20 mg/kg, rats, p.o. 20 mg/kg vs i.v. 4 mg/kg, read-out: F (bioavailability)): 44.5% | time of second peak of the plasma concentration-time curve ([1]; oral administration group, 20 mg/kg): 1 h | CLz/F ([1]; rat plasma, i.v. 4 mg/kg): 18.8 ± 8.5 mL/min/kg | Vz/F ([1]; rat plasma, i.v. 4 mg/kg): 2.05 ± 1.66 L/kg
SMILES: CC(=O)N(C)c1cccc(-c2ccc3nnc(C)n3n2)c1 [C1632]
body weight of mice (A549R xenograft tumours; 30 mg/kg every 2 days for 18 days): did not affect | growth of xenograft tumour cells (tumour volume over treatment period) (A549R xenograft tumours; 30 mg/kg every 2 days for 18 days, time-dependent): suppressed | tumour size (weight), mean ± SD (A549R xenograft tumours; 30 mg/kg every 2 days, after 18 days, n = 4, untreated 2.35 ± 0.43 g, p < 0.05): 1.36 ± 0.27 g
